What was measured:
SARS-CoV-2 [1] = test: microbe, parasite or virus in culture; format: cell-based; settings: Severe acute respiratory syndrome coronavirus 2, Vero, read-out: EC50 antiviral replication effect
SARS-CoV-2 [2] = test: microbe, parasite or virus in culture; format: cell-based

Structure (SMILES): CCC(CC)COC(=O)[C@H](C)N[P@](=O)(OC[C@H]1O[C@@](C#N)(c2ccc3c(N)ncnn23)[C@H](O)[C@@H]1O)Oc1ccccc1 [Remdesivir]
- EC50 (SARS-CoV-2 [1]): 240 nM
- virus entry blocking (SARS-CoV-2 [2]): could not block the virus entry

From PMC7700809 (Molecular Biomedicine, 2020)
